Measured values reported in US7151200B2, “Histamine receptor H3 modified transgenic mice” (Ortho-McNeil Pharmaceutical, Inc., priority 2001, dated 2006).
Entries after “also recorded” stand apart in the source; their conditions may differ. Like-named read-outs stand apart in the source and are kept apart here.

Columns and labels:
H3 receptor [1] = conditions: for binding detected: mouse brain homogenates (H3−/− by context), even at high (>100 nM) concentrations; for Kd: read-out: binding affinity, whole brain homogenates
Procedure: The mice were sacrificed by gas (CO2) and decapitated immediately. Brains were removed stored at −80° C. until use. The forebrain and the cerebellum tissue homogenized with a polytron in ice-cold 50 mM Na/K phosphate buffer, pH 7.5. The homogenates were centrifuged twice at 50,000×g for twenty minutes at 4° C.
The histamine H3 receptor binding was assayed by a modification of the method of Arrang et al. (1983) supra. Briefly, to examine inhibition curves, 0.4 ml aliquots of the suspensions (10 mg weight tissue) were incubated for sixty minutes at 25° C. with 1.5 nM [^3H]-R-alpha-MeHA. Specific binding was defined as that inhibited by 10 μM thioperamide. That reaction was terminated by addition of 5 ml of the ice-cold buffer and rapid filtration on a glass fiber filter (GF/B) pre-coated with 0.3% polyethyleneimine (Bruns et al., 1983). The filters were washed three times with 5 ml volumes of the ice-cold buffer, and the radioactivity trapped on the filters was counted in 10 ml of ScintiVerse (Fisher Scientific).

H3+/+ and H3−/− mice = experiment: Step-through passive avoidance test with scopolamine-induced amnesia; type: in vivo, mouse; conditions: scopolamine 0.75 mg/kg i.p. before first exposure, retest next day
From the text: The apparatus consisted of two compartments; one (9.5×18.5×16 cm) being surrounded by a white wall and illuminated by a 60 watt lamp, and the other (9.5×18.5×16 cm) being dark surrounded by a black wall. The compartments were separated by a guillotine door (4.5 5 4.5 cm). All the mice were habituated to the dark chamber for sixty minutes prior to the test. On the first day of the passive avoidance test, wild-type and knockout mice were divided into two groups. One group of each genotype was injected with scopolamine (0.75 mg/kg, i.p., thirty minutes before the session) while the other groups were injected with biological saline, 0.9% (w/v) NaCl, ([…], i.p.). The mice were placed into the illuminated safe compartment for thirty seconds before being given free access to the dark box. The mice tended to escape into the dark compartment. When all four paws were on the grid floor of the dark compartment, a scrambled constant current foot shock (1 mA, constant voltage 120 V, 50 Hz) was delivered to the grid for one second. Then the mice were returned to their home cages. Twenty-four hours later, the procedure, without the electric shock, was repeated. The time that elapsed before each mouse entered the dark compartment was measured.

H3 receptor [2] = type: in vivo, mouse
Procedure: Individually housed animals were maintained on a 12:12 light/dark (LD) cycle except in one study when the animals were transferred to constant darkness (DD). At three months of age, animals were implanted under deep anesthesia (ketamine 100 mg/kg and xylamine 10 mg/kg administered intraperitoneally) with EEG and EMG electrodes for sleep monitoring, and intraperitoneal biotelemetry transducers for the recording of body temperature and total locomotor activity. Two weeks after surgery and habituation to the recording chamber, body temperature and locomotor activity were monitored in baseline conditions for two consecutive days. In order to test the functional activity of H3 receptors, the effects of the H3 receptor antagonist thioperamide on sleep-wake states were examined. Mice were injected with saline one day, and thioperamide the next day. Injections occurred at the onset of the light phase and sleep EEG was recorded for the next six hours. A second group of H3+/+ and H3−/− mice were placed in running wheel cages at three months of age. Locomotor activity was recorded for three weeks under LD12:12 conditions and then the animals were transferred to constant darkness for two weeks.

[3] = H3+/+ mice, two-hour post injection period

## [3H]CNCCc1cnc[nH]1 [^3H-N-α-methylhistamine]
H3 receptor [1]
  binding detected: No binding could be detected

## NCCc1cnc[nH]1 [^3H-histamine]
H3 receptor [1]
  binding detected: No binding could be detected

## CN1[C@@H]2C[C@@H](OC(=O)[C@H](CO)c3ccccc3)C[C@H]1[C@@H]1O[C@@H]12 [scopolamine]
H3+/+ and H3−/− mice; H3+/+ mice
  recall of aversive stimulus (amnesic effect) in passive avoidance: failed to recall the aversive stimulus
H3+/+ and H3−/− mice; H3−/− mice
  response to amnesic effect in passive avoidance: decreased sensitivity; also recorded: completely unresponsive to the amnesic effects

## S=C(NC1CCCCC1)N1CCC(c2cnc[nH]2)CC1 [thioperamide]
H3 receptor [2]; H3+/+ mice, first two hours after administration at lights on
  increase in waking: 55%
H3 receptor [2]; [3]
  decrease in non-rapid eye movement (NREM) sleep: 61%
  effect on REM sleep: not affected
H3 receptor [2]; H3−/− mice
  effects on sleep-wake status: no effects; also recorded: insensitive
